From patent publication US9023821B2, “Use of MicroRNA for treating diseases associated with a dysfunction of the cilia in multiciliated epithelial cells” (Centre National de la Recherche Scientifique, priority 2009, dated 2015)

Tests used:
[1] = system: human airway epithelial cells (HAECs); assay: High-throughput sequencing (HTS) of miRNAs at four stages of differentiation of HAECs; conditions: for Modulation (ratio of the level of intensity of expression in log2 in two stages of differentiation) measured by high-throughput sequencing, D7 − D0 / Modulation (ratio of the level of intensity of expression in log2 in two stages of differentiation) measured by high-throughput sequencing, FC − D7 / Modulation (ratio of the level of intensity of expression in log2 in two stages of differentiation) measured by high-throughput sequencing, WD − D0 / Modulation (ratio of the level of intensity of expression in log2 in two stages of differentiation) measured by high-throughput sequencing, WD − FC / Level of intensity of expression in log2 measured by high-throughput sequencing, D0 / Level of intensity of expression in log2 measured by high-throughput sequencing, D7 / Level of intensity of expression in log2 measured by high-throughput sequencing, FC / Level of intensity of expression in log2 measured by high-throughput sequencing, WD: Table VI; for Level of intensity of expression in log2 At the differentiated stage (WD) measured in HTS: healthy human airway epithelial tissue; for Level of intensity of expression in log2 measured by high-throughput sequencing, D0: stage D0; for Level of intensity of expression in log2 measured by high-throughput sequencing, D7: stage D7; for Level of intensity of expression in log2 measured by high-throughput sequencing, FC: stage FC; for Level of intensity of expression in log2 At the differentiated stage (WD) measured in HTS / Level of intensity of expression in log2 measured by high-throughput sequencing, WD: stage WD
Summary of the method: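 Differentiation time course at air-liquid interface: 0, 7, ~14 (first cilia) and ~21 days (fully differentiated). Sequencing counts per strand were normalized to 10^6 sequences and analysed by linear model with empirical Bayesian moderation.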

[2] = system: human airway epithelial cells (HAECs); assay: Agilent miRNA chips, miRNA expression at four stages of differentiation of HAECs; conditions: for Modulation (ratio of the level of intensity of expression in log2 in two stages of differentiation) measured with the Agilent chips, D7 − D0 / Modulation (ratio of the level of intensity of expression in log2 in two stages of differentiation) measured with the Agilent chips, FC − D7 / Modulation (ratio of the level of intensity of expression in log2 in two stages of differentiation) measured with the Agilent chips, WD − D0 / Modulation (ratio of the level of intensity of expression in log2 in two stages of differentiation) measured with the Agilent chips, WD − FC / Level of intensity of expression in log2 measured with the Agilent chips, D0 / Level of intensity of expression in log2 measured with the Agilent chips, D7 / Level of intensity of expression in log2 measured with the Agilent chips, FC / Level of intensity of expression in log2 measured with the Agilent chips, WD: Table VI; for Level of intensity of expression in log2 measured with the Agilent chips, D0: stage D0; for Level of intensity of expression in log2 measured with the Agilent chips, D7: stage D7; for Level of intensity of expression in log2 measured with the Agilent chips, FC: stage FC; for Level of intensity of expression in log2 measured with the Agilent chips, WD: stage WD
Summary of the method: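 RNA from the same patients used for small-RNA sequencing was labelled and hybridized to a Human miRNA Microarray v2 (866 human and 89 human viral miRNAs, covering miRBase v.12.0) with the kit's labelling and hybridization protocol, giving miRNA expression profiles to compare against the sequencing data.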

[3] = system: basal cells and pyramidal cells of the airway epithelium; assay: miRNA expression in sorted basal cells versus pyramidal cells (ciliated + secretory), HTS and Agilent chips; set-up: species or system human; conditions: for Modulation of expression of the miRNAs in pyramidal cells (323(−)) relative to basal cells 323(+): HTS and Agilent chips; for Intensity of the level of expression in log2 in pyramidal cells (323(−)): pyramidal cells (ciliated + secretory)
Summary of the method: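 Sorted basal versus ciliated/mucus-secreting cells; markers CD151 and tissue factor; donors n=3; miRNA by Agilent chip or HTS.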

Row | Substance | Modulation (ratio of the level of intensity of expression in log2 in two stages of differentiation) measured by high-throughput sequencing, D7 − D0 [1] | Modulation (ratio of the level of intensity of expression in log2 in two stages of differentiation) measured by high-throughput sequencing, FC − D7 [1] | Modulation (ratio of the level of intensity of expression in log2 in two stages of differentiation) measured by high-throughput sequencing, WD − D0 [1] | Modulation (ratio of the level of intensity of expression in log2 in two stages of differentiation) measured by high-throughput sequencing, WD − FC [1] | Level of intensity of expression in log2 At the differentiated stage (WD) measured in HTS [1] | Level of intensity of expression in log2 measured by high-throughput sequencing, D0 [1] | Level of intensity of expression in log2 measured by high-throughput sequencing, D7 [1] | Level of intensity of expression in log2 measured by high-throughput sequencing, FC [1] | Level of intensity of expression in log2 measured by high-throughput sequencing, WD [1] | Modulation (ratio of the level of intensity of expression in log2 in two stages of differentiation) measured with the Agilent chips, D7 − D0 [2] | Modulation (ratio of the level of intensity of expression in log2 in two stages of differentiation) measured with the Agilent chips, FC − D7 ([2]; FC − D7) | Modulation (ratio of the level of intensity of expression in log2 in two stages of differentiation) measured with the Agilent chips, WD − D0 [2] | Modulation (ratio of the level of intensity of expression in log2 in two stages of differentiation) measured with the Agilent chips, WD − FC ([2]; WD − FC) | Level of intensity of expression in log2 measured with the Agilent chips, D0 [2] | Level of intensity of expression in log2 measured with the Agilent chips, D7 [2] | Level of intensity of expression in log2 measured with the Agilent chips, FC [2] | Level of intensity of expression in log2 measured with the Agilent chips, WD [2] | Modulation of expression of the miRNAs in pyramidal cells (323(−)) relative to basal cells 323(+) [3] | Intensity of the level of expression in log2 in basal cells (323(+)) [3] | Intensity of the level of expression in log2 in pyramidal cells (323(−)) [3] | further results
1 | hsa-miR-374a: human miRNA, SEQ ID No. 42 (UUAUAAUACAACCUGAUAAGUG; expressed or natural sequence; listed as Homo sapiens) | −0.33 log2 | 1.74 log2 | 2.16 log2 | 0.74 log2 | 11.87 log2 | 0.62 log2 | 0.30 log2 | 2.04 log2 | 2.78 log2 | 1.41 log2 | −0.54 log2 | 0.79 log2 | −0.08 log2 | 7.04 log2 | 8.45 log2 | 7.91 log2 | 7.83 log2 | −1.04 | 4.26 log2 | 3.22 log2 | Modulation (ratio of the level of intensity of expression in log2 at two stages of differentiation), FC − D7 ([2]; FC − D7, Agilent miRNA chips, Table V): −0.54 log2; Modulation (ratio of the level of intensity of expression in log2 at two stages of differentiation), WD − FC ([2]; WD − FC, Agilent miRNA chips, Table V): −0.08 log2
2 | hsa-miR-378: human miRNA, SEQ ID No. 43 (ACUGGACUUGGAGUCAGAAGG; expressed or natural sequence; listed as Homo sapiens) | 2.15 log2 | −0.26 log2 | 1.50 log2 | −0.39 log2 | 11.70 log2 | 10.37 log2 | 12.53 log2 | 12.26 log2 | 11.87 log2 | 3.23 log2 | −0.81 log2 | 2.16 log2 | −0.26 log2 | 4.38 log2 | 7.61 log2 | 6.80 log2 | 6.54 log2 | −2.43 | 4.11 log2 | 1.68 log2 | Modulation (ratio of the level of intensity of expression in log2 in two stages of differentiation), D7 − D0 ([1]; HTS): 2.15 log2; Modulation (ratio of the level of intensity of expression in log2 in two stages of differentiation), FC − D7 ([1]; HTS): −0.26 log2; Modulation (ratio of the level of intensity of expression in log2 in two stages of differentiation), WD − FC ([1]; HTS): −0.39 log2; Abundance (%), D0 ([1]; HTS, ALI-D0): 0.29%; Abundance (%), D7 ([1]; HTS, ALI-D7): 1.30%; Abundance (%), FC ([1]; HTS, ALI-FC): 1.04%; Abundance (%), WD ([1]; HTS, ALI-WD): 0.61%
